Source: patent publication US7060822B1, “2-pyrazolin-5-ones” (Abbott GmbH & Co. KG, priority 1999, dated 2006)

| Compound | melting point |
| --- | --- |
| CC(C)OC1=NNC(=O)C1=Cc1c[nH]cn1 [Example 366, 4-[(Imidazol-4-yl)methylene]-3-isopropoxy-2-pyrazolin-5-one] | 259 to 260 °C |
| O=C1NN=C(C2CC2)C1=Cc1cccs1 [Example 367, 3-Cyclopropyl-4-[(thien-2-yl)methylene]-2-pyrazolin-5-one] | 275 to 277 °C |
| CC(C)C1=NN(C)C(=O)C1=Cc1c[nH]c2ccccc12 [Example 368, 4[(Indol-3-yl)methylene]-3-isopropyl-1-methyl-2-pyrazolin-5-one] | 241 to 242 °C |
| CC(C)OC1=NNC(=O)C1=Cc1cc[nH]c1 [Example 369, 3-Isopropoxy-4-[(pyrrol-3-yl)methylene]-2-pyrazolin-5-one] | 252 to 255 °C |
| CC(C)OC1=NNC(=O)C1=Cc1ccc(O)c2ncccc12 [Example 370, 4-[(8-Hydroxyquinolin-5-yl)methylene]-3-isopropoxy-2-pyrazolin-5-one] | > 300 °C |
